How the values were obtained:
[1] = molecular target: Glutamate receptor ionotropic, NMDA 1 (Rattus norvegicus, UniProt P35439); experiment: Inhibition of [3H]L-689,560 binding to Glycine site of NMDA receptor of rat cortical membranes; assay type: cell membranes, Membrane
[2] = system: Mus musculus; experiment: In vivo activity in DBA/2 Mouse audiogenic seizure model was determined by testing number of animals protected after a dose of 100 mg/Kg i.p.; Number of animals tested 8 mice; assay type: functional
[3] = system: Mus musculus; experiment: In vivo activity in DBA/2 Mouse audiogenic seizure model was determined by testing number of animals protected after a dose of 50 mg/Kg i.p.; Number of animals tested 8 mice; assay type: functional

| SMILES | IC50 [1] [µM] | Animals protected [2] | Animals protected [3] |
| --- | --- | --- | --- |
| O=C(O)C[C@@H]1c2ccc(Cl)cc2N[C@H]1C(=O)O | > 100 |  |  |
| COC(=O)[C@@H]1c2ccc(Cl)cc2N[C@H]1C(=O)O | > 300 |  |  |
| COC(=O)C1(C(=O)OC)c2ccc(Cl)cc2N[C@H]1C(=O)O | > 100 |  |  |
| O=C(O)[C@@H]1Nc2cc(Cl)ccc2[C@H]1CO | > 100 |  |  |
| O=C(O)[C@@H]1c2ccc(Cl)cc2N[C@H]1C(=O)O | > 100 |  |  |
| NC(=O)[C@@H]1c2ccc(Cl)cc2N[C@H]1C(=O)O | > 100 |  |  |
| O=C(O)CCc1c(C(=O)O)[nH]c2cc(Cl)cc(Cl)c12 | 0.07 | 6 | 0 |

Continued, in another order:

| IC50 [1] [µM] | SMILES | Animals protected [2] | Animals protected [3] |
| --- | --- | --- | --- |
| 0.81 | NC(=O)c1c(C(=O)O)[nH]c2cc(Cl)ccc12 |  |  |
| 9 | O=C(O)c1[nH]c2cc(Cl)ccc2c1CO |  |  |
| 0.027 | Nc1ccc(CNC(=O)CCc2c(C(=O)O)[nH]c3cc(Cl)cc(Cl)c23)cc1 | 1 |  |
| > 100 | O=C(OC[C@@H]1c2ccc(Cl)cc2N[C@H]1C(=O)O)c1ccccc1 |  |  |
| 0.036 | O=C(CCc1c(C(=O)O)[nH]c2cc(Cl)cc(Cl)c12)Nc1ccccc1 |  |  |
